Experimental data published in US8246999B2, “Capped mesoporous silicates” (Iowa State University Research Foundation, Inc., priority 2003, dated 2012).
“Also recorded” adds a separate entry of the source. Counter-ions that a name gives are not always drawn.

Tests used:
[1] = Loading of vancomycin and ATP into linker-MSN and capping with CdS (HPLC of filtrate); assay type: physicochemical; conditions: for amount of mesopore-encapsulated molecule per 100.0 mg of linker-MSN material: CdS-capped MSN, calculated from concentration decrease in filtrate, HPLC; for loading efficiency: CdS-capped linker-MSN
Method: Purified linker-MSN material from sub-part (b) below (100.00 mg) was incubated in a PBS buffer solution (0.60 mL, pH 7.4) of ATP or vancomycin (3.00 μmol in both cases) for 24 hours. Mercaptoacetic acid-functionalized CdS nanoparticles from sub-part (c) below (0.15 mmol) were dissolved in 2.00 mL of PBS buffer with vancomycin or ATP (0.01 mmol in both cases); 1-[3-(dimethylamino)propyl]-3-ethylcarbodiimide hydrochloride (EDC) (57.50 mg, 0.30 mmol) was added to the CdS/drug solution. The reaction mixture was allowed to stir for 24 hours, followed by centrifuging the suspension at 12 000 rpm for 3 minutes. The resulting precipitates (ATP- or vancomycin-loaded, CdS-capped MSNs) were isolated and dried under vacuum.
The resulting reaction suspensions were centrifuged, and the CdS-capped MSN/drug composite materials along with the unreacted CdS nanoparticles were filtered. The concentrations of the free vancomycin and ATP molecules in the filtrate were then determined by HPLC. The calculated concentration decreases of solution vancomycin and ATP were attributed to the amounts of mesopore-encapsulated vancomycin (2.5 μmol) and ATP (4.7 μmol) per 100.0 mg of linker-MSN material. These numbers correspond to ca. 83.9 and 30.3 mol % loading efficiency, respectively.

[2] = DTT-induced drug/neurotransmitter release study from CdS-capped MSN (HPLC); assay type: physicochemical; conditions: for amount released / portion of encapsulated molecules released: after 3 days of DTT-induced uncapping; for release as share of the total release seen in 3 days: within 24 hours after introduction of 18.5 mM DTT
Method: CdS-capped MSN with vancomycin or ATP (10.00 mg) material was dispersed in 1.50 mL of PBS buffer (pH 7.4), followed by repeating wash/sonication/centrifugation cycles for five times to remove physisorbed, uncapped vancomycin or ATP molecules on the exterior surface of the material. The purified MSN/drug composite was redispersed in 3.50 mL of PBS buffer (pH 7.4). Aliquots were taken every 4 hours over a time period of 12 hours from the MSN/water suspension and injected to an analytical HPLC system (Hitachi LC/3DQMS with a reverse phase C18 column (Vydac), 0.4 cm×25 cm) to monitor the leaching of the mesoporous channel encapsulated vancomycin or ATP molecules. After 12 hours, dithiothreitol (DTT, 18.50 mM) was added to the suspension to cleave the disulfide linkage between the CdS nanoparticle and the MSN. The kinetic profiles of the DTT-induced release of vancomycin and ATP were monitored by following two literature-reported HPLC separation conditions. The peaks/areas at 280 and 258 nm were monitored/integrated for the quantitative analysis of amounts of released vancomycin and ATP, respectively. See Farin, D., et al., J. Pharm. Biomed. Anal. 1998, 18, 367-372; and Veciana-Nogues, M. T., et al., Food Chem. 1997, 59, 467-472.

[3] = literature reports; cited from earlier work
[4] = system: astrocytes; assay type: cell-based, rat
Method: • (i) Wistar rats, raised at Iowa State University, were used for these experiments. Animal care and experimental protocols were in accordance with the guidelines and approval of the Iowa State University Committee on Animal Care. • (ii) Cell Cultures. Enriched primary astrocyte cultures from neonatal (P0 to P3) rat cerebral cortex were prepared as previously described by Jeremic, A., et al., J. Neurochem. 2001, 77, 664-675. Briefly, freshly dissected cortical tissues from three animals were incubated 50 minutes at 37° C. in 2.00 mL of Earle's balanced salt solution (EBSS; Gibco-Invitrogen Co.) containing papain (1.54 mg/mL; Sigma-Aldrich Co.). After incubation, tissue was rinsed with EBSS solution and incubated for 5 minutes in trypsin-inhibitor solution (1 mg/mL; Gibco-Invitrogen Co.). After being rinsed, once with EBSS solution and once with culture medium (consisting of α-minimum essential medium (α-MEM; Gibco-Invitrogen Co.) supplemented with 10% heat-inactivated fetal bovine serum (FBS; Gibco-Invitrogen Co.) and 1.00 mL of penicillin-streptomycin solution (Sigma-Aldrich Co.) per 100 mL), the tissue was mechanically dispersed in culture medium by triturating through a fire-polished glass pipet. The cell suspension was transferred to sterile 15-mL centrifuge tubes and spun at 1000 g for 10 minutes. Cell pellets were resuspended in culture medium (α-MEM supplemented with 10% heat-inactivated FBS and 1.00 mL of penicillin-streptomycin solution per 100.00 mL) and plated in culture flasks. Cells were maintained at 37° C. in a humidified 5% CO2/95% air atmosphere. Culture medium was changed every 2 to 3 days. When mixed cultures reached confluence (9-12 days), the flasks were shaken (260 rpm) for 90 minutes to remove microglia and dividing type I astroglia. After shaking the cells, medium was replaced, and the flasks were incubated for 1 hour to equilibrate with CO2 in the fresh medium. Cultures were then shaken overnight (12-18 hours) at 260 rpm at 37° C. Cultures enriched in type I astroglia were obtained by trypsinizing (0.25%; Sigma-Aldrich Co.) attached cells for 5 minutes. […]

| Compound | amount of mesopore-encapsulated molecule per 100.0 mg of linker-MSN material [1] | loading efficiency [1] | amount released [2] | portion of encapsulated molecules released [2] | release as share of the total release seen in 3 days [2] | isoelectric point (pI) [3] | [Ca^2+]i response of astrocytes to ATP ([4]; 100.0 μM ATP perfusion, no MSNs, ME-treated astrocytes, triphosphate disodium salt) | [Ca^2+]i response of astrocytes to ATP in presence of empty capped MSNs ([4]; 100.0 μM ATP perfusion, CdS-capped MSNs without ATP encapsulation present, triphosphate disodium salt) | [Ca^2+]i response of astrocytes to ME ([4]; ME 1.0 mM for 5 minutes, without MSNs) |
| --- | --- | --- | --- | --- | --- | --- | --- | --- | --- |
| CN[C@H](CC(C)C)C(=O)N[C@H]1C(=O)N[C@@H](CC(N)=O)C(=O)N[C@H]2C(=O)N[C@H]3C(=O)N[C@H](C(=O)N[C@H](C(=O)O)c4cc(O)cc(O)c4-c4cc3ccc4O)[C@H](O)c3ccc(c(Cl)c3)Oc3cc2cc(c3O[C@@H]2O[C@H](CO)[C@@H](O)[C@H](O)[C@H]2O[C@H]2C[C@](C)(N)[C@H](O)[C@H](C)O2)Oc2ccc(cc2Cl)[C@H]1O [vancomycin, Vancomycin hydrochloride] | 2.5 µmol | ca. 83.9 mol % | 1.6 µmol | 53.8% | 85% | 8.3 | – | – | – |
| Nc1ncnc2c1ncn2[C@@H]1O[C@H](COP(=O)([O-])OP(=O)([O-])OP(=O)(O)O)[C@@H](O)[C@H]1O.[Na+].[Na+] [ATP, adenosine triphosphate disodium salt] | 4.7 µmol | ~30.3 mol % | 1.3 µmol | 28.2% | 85% | – | obvious increases in [Ca^2+]i | [Ca^2+]i increased; also recorded: An increase in [Ca^2+]i | – |
| OCCS [ME] | – | – | – | – | – | – | – | – | no increase in [Ca^2+]; also recorded: failed to produce any [Ca^2+]i response |
